These results are taken from BindingDB's records for doi:10.1007/s00044-011-9938-0 (n/a, 2012).

Broadly, the pIC50 is the negative decadic logarithm of the IC50, by convention in mol/L. Higher therefore signals a small IC50.

pIC50: −log10 of the molar value.

The target in the assay is Alpha-glucosidase MAL62 (Saccharomyces cerevisiae, UniProt P07265). As to the kind of experiment: Inhibition of baker's yeast alpha-glucosidase using p-nitrophenyl-alpha-D-glucopyranoside as substrate by spectrophotometry.
Sequence of Alpha-glucosidase MAL62 (P07265 whole entry): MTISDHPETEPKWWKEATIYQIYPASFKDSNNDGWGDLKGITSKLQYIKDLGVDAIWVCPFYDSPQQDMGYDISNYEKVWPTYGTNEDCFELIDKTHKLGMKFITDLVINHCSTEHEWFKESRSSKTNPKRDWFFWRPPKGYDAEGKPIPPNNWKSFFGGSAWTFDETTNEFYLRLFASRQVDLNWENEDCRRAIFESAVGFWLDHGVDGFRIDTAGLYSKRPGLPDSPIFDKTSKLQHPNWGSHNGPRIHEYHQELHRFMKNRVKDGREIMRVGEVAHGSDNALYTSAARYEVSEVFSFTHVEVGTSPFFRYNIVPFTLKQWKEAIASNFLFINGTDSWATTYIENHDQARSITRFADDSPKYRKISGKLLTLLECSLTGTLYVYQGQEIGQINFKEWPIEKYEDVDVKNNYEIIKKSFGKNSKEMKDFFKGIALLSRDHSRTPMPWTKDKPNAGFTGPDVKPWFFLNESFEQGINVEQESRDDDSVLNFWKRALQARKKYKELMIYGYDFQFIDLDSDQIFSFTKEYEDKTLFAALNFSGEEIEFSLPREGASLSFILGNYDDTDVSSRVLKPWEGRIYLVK
Regarding `CC(C)=CCc1cc(C2CCc3ccc(O)cc3O2)cc(O)c1O` (stereo not drawn) [5-(7-Hydroxy-chroman-2-yl)-3-(3-methyl-but-2-enyl)-benzene-1,2-diol], the pIC50 was 4.12.
Compound `O=C(O)/C=C/c1ccc(Oc2ccccc2)cc1` gave a negative logarithm of the IC50 (pIC50) of 3.36.
`OC[C@H]1OC(OC2=C(c3cc(O)c(O)c(O)c3)Oc3cc(O)cc(O)c3C2)[C@@H](O)[C@@H](O)[C@@H]1O` (stereo partly drawn) gave a pIC50 of 4.52.
In turn, `C=CC(C)(C)c1c(O)cc(O)c2c(=O)c3oc4c(CC=C(C)C)c(O)c(OCC=C(C)C)cc4c3oc12` showed a negative-log IC50 (pIC50) of 4.48.
Take `CC1(C)C=Cc2cc(C(=O)/C=C/c3ccc(O)c(O)c3)c(O)cc2O1`: the pIC50 was 4.72.
The compound `O=c1c(-c2ccc(O)cc2)coc2cc(O)cc(O)c12` [Prunetol] gave a pIC50 of 5.16.
`C=CC(C)(C)c1cc2c(cc1O)OC(c1cc(O)c(O)c(CC=C(C)C)c1C/C=C\C)CC2` (stereo not drawn) had a pIC50 of 4.97.
As to `O=C(O)/C=C/c1ccc(O)cc1` [p-Coumaric Acid], the pIC50 is 3.70.
In turn, `CC1(C)C=Cc2cc(C(=O)/C=C/c3ccc(O)cc3)c(O)cc2O1` [4-HYDROXYISOLONCHOCARPIN] had a pIC50 of 4.91.
`O=C1C[C@@H](c2ccc(O)cc2)Oc2cc(O)cc(O)c21`: the negative logarithm of the IC50 (pIC50) is 4.13.
For the compound `O=c1c(O)c(-c2ccc(O)cc2O)oc2cc(O)cc(O)c12` [2-(2,4-dihydroxyphenyl)-3,5,7-trihydroxychromen-4-one], the negative-log IC50 (pIC50) is 4.40.
Compound `C=CC(C)(C)c1c(O)cc(O)c2c(=O)c(O)c(-c3cc(O)c(O)c(CC=C(C)C)c3)oc12` [2-[3,4-Dihydroxy-5-(3-methyl-but-2-enyl)-phenyl]-8-(1,1-dimethyl-allyl)-3,5,7-trihydroxy-chromen-4-one] gave a pIC50 of 5.44.
With `Oc1cc(O)c2c(c1)O[C@H](c1ccc(O)c(O)c1)[C@@H](O)C2` [CHEBI:23053], the pIC50 was 3.89.
On to `O=c1c(O)c(-c2cc(O)c(O)c(O)c2)oc2cc(O)cc(O)c12`, for which the pIC50 was 5.30.
For the compound `O=c1c(O)c(-c2ccc(O)c(O)c2)oc2cc(O)ccc12` [2-(3,4-dihydroxyphenyl)-3,7-dihydroxy-chromen-4-one], the pIC50 is 4.89.
For `CC(C)=CCc1cc(C(=O)/C=C/c2ccc(O)cc2)c(O)cc1O` [BROUSSOCHALCONE B] the value was 4.95.
The compound `O=C(O)/C=C/c1ccc(F)cc1` gave a pIC50 of 3.57.
In the case of `O=c1cc(O)cc2oc(-c3ccc(O)c(O)c3)c(O)cc1-2`, the pIC50 is 5.40.
For the compound `CC(C)=CCc1cc(C(=O)/C=C/c2ccc(O)c(O)c2)c(O)cc1O` [broussochalcone A], the pIC50 was 5.28.
`OC[C@H]1OC(OC2=C(c3ccc(O)c(O)c3)Oc3cc(O)cc(O)c3C2)[C@@H](O)[C@@H](O)[C@@H]1O` (stereo partly drawn) gave a pIC50 of 4.70.
Consider `COc1ccc([C@@H]2CC(=O)c3c(O)cc(O)cc3O2)cc1O` [(2S)-5,7-dihydroxy-2-(3-hydroxy-4-methoxyphenyl)-3,4-dihydro-2H-1-benzopyran-4-one], for which the pIC50 is 3.82.
`O=c1c(O)c(-c2ccc(O)c(O)c2)oc2cc(O)cc(O)c12` [2-(3,4-dihydroxyphenyl)-3,5,7-trihydroxy-chromone;hydrate] gave a negative logarithm of the IC50 (pIC50) of 5.16.
On to `C=C(C)C(CCC(C)(C)O)Cc1c(O)cc(OC)c2c1OC(c1ccc(O)cc1O)CC2=O` (stereo not drawn), for which the pIC50 was 3.75.
In turn, `O=C(O)/C=C/c1ccc(Cl)cc1` [CHEBI:61116] gave a pIC50 of 3.41.
As to `O=c1c(O)c(-c2ccc(O)cc2)oc2cc(O)cc(O)c12`, the pIC50 is 4.92.
Turning to `C=CC(C)(C)c1c(O)cc(O)c2c(=O)c3oc4c5c(c(OCC=C(C)C)cc4c3oc12)OC(C)(C)C=C5`, the negative-log IC50 (pIC50) was 4.56.
`COc1ccc(/C=C/C(=O)O)cc1` [3-(4-methoxyphenyl)acrylic acid] showed a negative logarithm of the IC50 (pIC50) of 4.40.
For `C=C(C)C(CC=C(C)C)Cc1c(O)cc(O)c2c1OC(c1ccc(O)cc1O)CC2=O` (stereo not drawn) the value was 4.43; for `COc1cc(O)c(C(C)=C(C)C)c2c1C(=O)CC(c1ccc(O)cc1)O2` (stereo not drawn), 3.45; for `C=C(C)C(CC=C(C)C)Cc1c(O)cc(O)c2c1OC(c1ccccc1O)CC2=O` (stereo not drawn), 4.35.
In turn, `COc1cccc(/C=C/C(=O)O)c1` gave a negative logarithm of the IC50 (pIC50) of 3.24.
For `CC(C)=CCc1c(C2CCc3ccc(O)cc3O2)cc2c(c1O)OC(C)(C)C=C2` (stereo not drawn), the pIC50 is 4.58.
Take `O=C(O)c1cc(O)c(O)c(O)c1` [Gallic Acid, F]: the pIC50 is 5.28.
As to `O=c1cc(-c2ccc(O)c(O)c2)oc2cc(O)cc(O)c12` [2-(3,4-dihydroxyphenyl)-5,7-dihydroxy-4H-chromen-4-one], the negative-log IC50 (pIC50) was 4.68.
For `CC(C)=CCc1cc(-c2oc3cc(O)c(CC=C(C)C)c(O)c3c(=O)c2O)cc(O)c1O` [CHEBI:66727], the pIC50 is 5.68.
The result for `O=c1c(-c2ccc(O)cc2)coc2cc(O)ccc12` reads 4.85.
The result for `CCOC(=O)/C=C/c1ccc(OC)cc1` [4-Methoxy Ethyl Cinnamate] reads 4.30; that for `C=C(C)C(CC=C(C)C)Cc1c(O)cc(OC)c2c1OC(c1ccc(O)cc1O)CC2=O` (stereo not drawn), 4.17.
For `O=C(O)/C=C/c1cccc(O)c1` [(2E)-3-(3-hydroxyphenyl)prop-2-enoic acid], the pIC50 is 2.90.
The result for `CC(C)=CCc1cc(C2CCc3ccc(O)cc3O2)c(CC=C(C)C)c(O)c1O` (stereo not drawn) reads 4.92; that for `O=C(O[C@@H]1Cc2c(O)cc(O)cc2O[C@@H]1c1cc(O)c(O)c(O)c1)c1cc(O)c(O)c(O)c1` [epigallocatechin gallate], 5.70.
For `C=C(C)C(CC=C(C)C)Cc1c(O)cc(OC)c2c1OC(c1ccc(OC)cc1O)CC2=O` (stereo not drawn), the pIC50 is 3.81.
Turning to `Oc1cc(O)c2c(c1)O[C@H](c1cc(O)c(O)c(O)c1)[C@H](O)C2` [CHEBI:71224], the negative logarithm of the IC50 (pIC50) was 4.13.
